{
  "source": "patent US20250345459A1",
  "about": "“COMPOUND OR SALT THEREOF, LIPID COMPOSITION, PHARMACEUTICAL COMPOSITION, AND DELIVERY CARRIER” (FUJIFILM Corporation, priority 2023, published 2025)",
  "key": {"EPO mRNA": {"tested_on": "EPO mRNA", "assay": "mRNA encapsulation rate of mRNA lipid nanoparticles", "assay_type": "physicochemical", "details": "LNP with neutral lipid DSPC; mixed solution PBS; Lipid/Nucleic acid (wt/wt) 20", "procedure,_shortened": "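Lipid nanoparticles made by microfluidic mixing of ionizable lipid:neutral lipid (DSPC or DOPE):cholesterol:DMG-PEG2000 (50:10:38.5:1.5 mol %) with mRNA in pH 4.0 citrate, then dialysed against Tris pH 7.4 with 8% sucrose. Total mRNA was measured by A260−A330 after methanol disruption, outer-phase mRNA by RiboGreen standard addition; encapsulation rate derived from both.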"}, "[1]": {"assay": "Particle size of EPO mRNA-encapsulating lipid nanoparticles", "assay_type": "physicochemical", "details": "LNP with neutral lipid DSPC; mixed solution PBS; Lipid/Nucleic acid (wt/wt) 20"}, "ICR mice": {"tested_on": "ICR mice", "assay": "EPO protein expression in mice after intravenous EPO mRNA lipid nanoparticles", "assay_type": "in vivo", "details": "mRNA 0.1 mg/kg, plasma 6 hours after administration, neutral lipid DSPC, Lipid/Nucleic acid (wt/wt) 20, Comparative Example 1 is 1", "description": "The compounds described in Table 1, the neutral lipid, cholesterol (product name: Cholesterol HP; NIPPON FINE CHEMICAL CO., LTD.), and 1,2-dimyristoyl-rac-glycero-3-(methylpolyoxyethylene 2000) (hereinafter, called DMG-PEG2000) (product name: SUNBRIGHT® GM-020; NOF corporation) were dissolved in ethanol at a molar ratio of ionized lipid:neutral lipid:cholesterol:DMG-PEG2000=50:10:38.5:1.5 mol % such that the total lipid concentration was 12.5 mmol/L, to obtain an oil phase.\nAs the neutral lipid, 1,2-distearoyl-sn-glycero-3-phosphocholine (product name: COATSOME® MC-8080; NOF corporation) (hereinafter, DSPC), or L-α-dioleoylphosphatidylethanolamine (hereinafter, DOPE) (product name: COATSOME® MC-8181; NOF corporation) was used.\nEPO mRNA (product name: CleanCap EPO mRNA (5 moU); TriLink) was diluted with 50 mmol/L citrate buffer having a pH 4.0 such that the weight ratio of total lipid concentration to mRNA concentration is about 20:1 to 64:1, thereby obtaining a water phase. Then, the water phase and the oil phase were mixed together using NanoAssemblr (Precision NanoSystems) such that the volume ratio of water phase:oil phase was 3:1. The mixed solution was diluted 2-fold with any of phosphate buffered physiological saline (PBS), water, or a 20 mmol/L Tris buffer solution (pH 7.4) to obtain a dispersion liquid of mRNA lipid nanoparticles. The dispersion liquid was dialyzed with 20 mmol/L Tris buffer solution (pH 7.4) containing 8% sucrose using a dialysis cassette (Slide-A-Lyzer G2, MWCO: 10 kD, Thermo Fisher Scientific) to remove ethanol, thereby obtaining EPO mRNA-encapsulating lipid nanoparticles.\nThe dispersion liquid of mRNA lipid nanoparticles prepared in above <Preparation of EPO mRNA-encapsulating lipid nanoparticles> was intravenously administered to ICR mice at a mRNA dosage of 0.1 mg/kg. 6 hours after the administration, blood was collected from the caudal vena cava, thereby obtaining plasma. The human EPO […] was quantified by using the obtained blood plasma and Erythropoietin (EPO) Human Elisa Kit (Abcam.plc). The quantitative value is described as a relative amount of EPO protein in a case where Comparative Example 1 is 1."}},
  "data": [
    {"compound": "CCCCCCCCN(CCCCCC(=O)OCC(CCCCC)CCCCC)C(=O)OCCN(CCCN(CC)CC)CCOC(=O)N(CCCCCCCC)CCCCCC(=O)OCC(CCCCC)CCCCC", "note": "[Example 51, Bis(2-pentylheptyl) 12-(3-(diethylamino)propyl)-7,17-dioctyl-8,16-dioxo-9,15-dioxa-7,12,17-triazatricosanedioate]", "values": [
      {"measurement": "Nucleic acid encapsulation rate (%)", "setting": "EPO mRNA", "result": 94, "unit": "%"},
      {"measurement": "Particle size (nm)", "setting": "[1]", "result": 93, "unit": "nm"},
      {"measurement": "Relative amount of EPO protein (to Comparative Example 1)", "setting": "ICR mice", "result": 2.88}
    ]}
  ]
}
